Laboratory results as given in patent publication US20250114337A1, “METHODS FOR VASCULAR REGENERATION AND WOUND TREATMENT” (THE METHODIST HOSPITAL, priority 2022, published 2025).
“Also recorded” adds a separate entry of the source.

Assays:
BJ fibroblasts = assay: in vitro transdifferentiation of fibroblasts to induced endothelial cells (iECs); assay type: cell-based, human; settings: fibroblasts exposed during transdifferentiation protocol
Description: Innate immune activation is required for transdifferentiation. […] 131 (3): p. 300-9). iECs generated from this protocol manifest high fidelity for endothelial lineage. They incorporate acetylated LDL (FIG. 2B), form tubular networks (FIG. 2C), have similar transcriptomes as genuine endothelial cells, and increase capillary density and perfusion when injected into the ischemic hindlimb of the mouse (FIG. 2D) (Sayed, N., et al., Circulation, 2015. 131 (3): p. 300-9). This protocol can be utilized to study the role of O-GlcNAcylation in transdifferentiation in vitro.
O-GlcNAcylation is required for in vitro transdifferentiation. To define if the elevation of O-GlcNAcylation is required for transdifferentiation, fibroblasts were exposed to Thiamet G (TMG) (an OGA inhibitor that enhances O-GlcNAcylation) or DON (an inhibitor for GFAT that acts upstream in the hexosamine biosynthesis pathway and reduces O-GlcNAcylation). The number of iECs generated during transdifferentiation is increased when fibroblasts are exposed to TMG and decreased when exposed to DON (FIG. 5A). […] The role of O-GlcNAcylation of specific epigenetic regulars e.g., HIRA during transdifferentiation can also be addressed.
To define if the elevation of O-GlcNAcylation is required for transdifferentiation, inhibitors of O-GlcNAcylation including OSMI (an inhibitor for OGT) and DON (an inhibitor for GFAT that acts upstream in the hexosamine biosynthesis pathway and reduces O-GlcNAcylation) or an activator of O-GlcNAcylation. Thiamet G (TMG) (an OGA inhibitor that enhances O-GlcNAcylation), were delivered to BJ fibroblasts undergoing transdifferentiation. The number of CD31 expressing iECs generated during transdifferentiation decreases when exposed to OSMI or DON and increases when fibroblasts are exposed to TMG (FIG. 17B). Then OGT or OGA were knocked down using shRNA in the BJ fibroblasts (FIG. 17C) and performed transdifferentiation protocol in vitro.

H3.3 deposition = assay: H3.3-SNAP tagging, quench-chase-pulse TMR-Star labeling; assay type: cell-based; settings: Poly I:C + OSMI
Description: To identify the role of O-GlcNAcylation of histone variant h3.3 chaperone protein, HIRA, on transdifferentiation. The effects of O-GlcNAcylation on proteins that may be involved in the epigenetic regulation of transdifferentiation can be assessed. Nucleosome turnover is known to be tightly interrelated with DNA accessibility, and histone variant h3.3 is a hallmark of regulatory regions in the mammalian genome and is required to establish open chromatins. HIRA is the chaperone for h3.3, it forms a complex with other subunits, including ASF1. UBN, and CABIN, and is responsible for h3.3 deposition on the chromatin. OGT interacts with and O-GlcNAcylates HIRA, both of which are critical for the formation of the HIRA-h3.3 complex and h3.3 deposition and its dependent gene activation. […] The role of HIRA in transdifferentiation with fibroblasts that have HIRA knocked down or overexpressed can be determined. […] Thereafter, the de novo deposited SNAP-h3.3 will be pulse-labeled with the TMR-Star, which is a readily detectable and quantifiable red-fluorescent substrate. […]
To test whether innate immune activation enhances the H3.3 deposition in the chromatin, the H3.3-SNAP tagging system was generated where the newly synthesized H3.3 will be detected by fluorescent TMR-Star labeling with quench-chase-pulse strategy.

CCOC(=O)CN(Cc1cccs1)C(=O)[C@H](NS(=O)(=O)c1cc2ccc(=O)[nH]c2cc1Cl)c1ccccc1OC [OSMI]
iEC yield (number of CD31 expressing iECs generated during transdifferentiation) (BJ fibroblasts): decreases; also recorded: impair | Poly I:C-enhanced H3.3 deposition (H3.3 deposition): impaired
